Source: patent US20260294933A1, “USE OF COMPOUND IN PREVENTION OR TREATMENT OF RADIATION-INDUCED BRAIN INJURY” (GUANGZHOU CELLPROTEK PHARMACEUTICAL CO., LTD, priority 2023, published 2026)
“Also recorded” adds a separate entry of the source.

Experiments:
[1] = system: gamma knife irradiation induced focal radiation-induced brain injury (brain lesions); assay: Brain lesion volume by MRI, gamma knife irradiation induced focal radiation-induced brain injury in C57BL/6 mice; assay type: in vivo
Procedure: (§1) The coordinates of the irradiation center positioning point were: 2 mm behind the anterior fontanelle (AP), 2 mm left of the midline (L), and 2 mm below the skull dura mater (dorsal ventral DV).
Quantitative Analysis of Brain Lesion Volume Using Magnetic Resonance imaging (MRI)
Prior to detection, each mouse was injected with 200 μl of contrast agent solution at a concentration of approximately 48 mg/ml.

GFAP positive astrocytes = assay: GFAP immunofluorescence staining, activation of astrocytes in the thalamus of the lesion; assay type: in vivo, C57BL/6 mice
Excerpt: FIG. 3: YC-6 inhibited the activation of astrocytes after radiation-induced brain injury. Pannel A: GFAP immunofluorescence staining in the thalamus of the brain lesion, with a white ruler indicating […]. Pannel B: Counting GFAP positive cells in Pannel A, i.e., randomly selecting three fields of view in the brain slice injury lesion area and using Image J software to count GFAP positive cells in the selected fields as the number of GFAP positive cells per unit area, and taking the average value. **** represents P<0.0001, n=5.
as §1
(§2) Immunofluorescence Staining of GFAP, CC1, and MAG Proteins in Brain Slices

[2] = system: CC1 positive oligodendrocytes; assay: CC1 immunofluorescence staining, mature oligodendrocytes in the thalamus of the lesion; assay type: in vivo, C57BL/6 mice
Excerpt: (§3) Pannel A: Immunofluorescence staining of CC1 and MAG in the thalamus of the brain lesion, with a white ruler indicating […]. Pannel B: Counting CC1 positive cells in Pannel A, i.e., randomly selecting three fields of view in the brain slice injury lesion area and using Image J software to count CC1 positive cells in the selected fields as the number of CC1 positive cells per unit area, and taking the average value. Pannel C: Statistical analysis of MAG immunofluorescence intensity in Pannel A, i.e., randomly selecting three fields of view in the brain slice injury lesion area and using Image J software to quantify the fluorescence signal intensity of MAG in the selected fields as the fluorescence intensity of MAG per unit pixel area, and taking the average value. **** represents P<0.0001, n=5.
as §1, §2

MAG = MAG immunofluorescence intensity in the thalamus of the lesion; assay type: in vivo, C57BL/6 mice
Excerpt: as §3, §1, §2

[3] = system: radiation-induced brain injury; conditions: patients treated with bevacizumab; cited from earlier work
[4] = system: blood-brain barrier and microvessels; conditions: animals; cited from earlier work
[5] = YC-6 administration for 8 weeks

## C[C@@]12CCCC1C1C[C@@H](O)[C@@]3(O)C[C@@H](O)CC[C@]3(C)C1CC2 (stereo partly drawn) [YC-6, 5α-androst-3β,5,6β-triol]
[1]; 60 mg/kg/d for 2 weeks, followed by discontinuation until week 8
  volume of brain lesions (in words): significantly reduced the volume of brain lesions; also recorded: significantly reducing lesion volume
[1]; full 8-week administration, compared to 2-week administration
  volume of brain lesions (in words): showed a trend towards further reducing the volume of brain lesions; also recorded: showed a better trend in reducing lesion volume compared to short-term administration
GFAP positive astrocytes; 60 mg/kg/d for 8 weeks, 8 weeks after gamma knife radiation, Mean ± SEM, n=5, P < 0.0001 vs RBI + Saline (558.20 ± 10.07), Control + Saline 57.80 ± 2.69
  Number of astrocytes (GFAP positive): 357.00 ± 10.61 Astrocytes/mm^2
GFAP positive astrocytes; [5]
  activation of astrocytes (in words): significantly inhibited the activation of astrocytes
[2]; 60 mg/kg/d for 8 weeks, 8 weeks after gamma knife radiation, Mean ± SEM, n=5, P < 0.0001 vs RBI + Saline (200.60 ± 21.47), Control + Saline 1608.00 ± 47.92
  Number of mature oligodendrocytes (CC1 positive): 506.40 ± 30.48 Oligodendrocytes/mm^2
[2]; [5]
  reduction of oligodendrocytes (in words): significantly inhibited the reduction of oligodendrocytes
MAG; 60 mg/kg/d for 8 weeks, 8 weeks after gamma knife radiation, Mean ± SEM, n=5, P < 0.0001 vs RBI + Saline (0.31 ± 0.018), Control + Saline 1.04 ± 0.047
  MAG fluorescence signal intensity: 0.44 ± 0.018
MAG; [5]
  MAG level (in words): restored MAG level

## bevacizumab: bevacizumab, used in a randomized double-blind placebo-controlled study in 2011
[3]
  neurological function: significant improvement in neurological function
  reduction in brain injury lesions: varying degrees of reduction in brain injury lesions

B1: mouse nerve growth factor for injection: mouse nerve growth factor for injection (protein, UniProt P01139 122-241, looked up)
Beta-nerve growth factor: SSTHPVFHMGEFSVCDSVSVWVGDKTTATDIKGKEVTVLAEVNINNSVFRQYFFETKCRASNPVESGCRGIDSKHWNSYCTTTHTFVKALTTDEKQAAWRFIRIDTACVCVLSRKATRRG
[4]
  damage to the blood-brain barrier and repair of microvessels: can alleviate damage to the blood-brain barrier and repair microvessels in animals
